Values of other authors, collected in patent publication US12128066B2, “Product for treating skin fungus and its micronized preparation method” (priority 2021, dated 2024).

Details: in water or organic solvents

SMILES: S=[Se]=S [Selenium disulfide]
- Solubility: almost insoluble
